Results taken from patent publication US9044483B2, “Cell death inhibition by macrophage migration inhibitory factor and a binding substance thereto” (Takeda Pharmaceuticals Company Limited, priority 2006, dated 2015).

What was measured:
rat MIF = biological target: T1, rat MIF (Rattus norvegicus, UniProt P30904, G111N); experiment: Binding to rat MIF by surface plasmon resonance (BIACORE 3000), compound immobilized on sensor chip CM5; details: 1 μg/ml rat MIF in PBS with 0.005% Tween 20, FIG. 1, FIG. 4
T1 construct: made in house; host or cells: Escherichia coli BL21 (DE3)
Description: The binding of rat MIF obtained in REFERENCE EXAMPLE 2 to Compound A (cf., EXAMPLE 107 of WO 03/020719; see the formula below) was analyzed by BIACORE 3000 (manufactured by Biacore Co., Ltd.).
(§1) After Compound A was immobilized onto a sensor chip CM5 (manufactured by Biacore Co., Ltd.), phosphate buffered saline containing 0.005% Tween 20 containing 1 μg/ml of rat MIF was passed over the chip to assess changes in surface plasmon resonance signal as the binding of the compound to rat MIF.
as §1, with “The binding of rat MIF obtained in REFERENCE EXAMPLE 2 to” for “After”, “C (see the formula below) was analyzed by BIACORE 3000 (manufactured by Biacore Co., Ltd.). In a manner similar to EXPERIMENT 1(1), Compound C” for “A”, “Ltd.) and then,” for “Ltd.),”

His-hMIF = biological target: T2, His-hMIF (Homo sapiens, UniProt P14174); experiment: Binding of His-hMIF (peptide added to N terminus) to immobilized Compound A by BIACORE 3000; details: FIG. 5
T2 construct: the region encoding MIF was amplified from human complementary DNA (cDNA) library; made in house; host or cells: Escherichia coli BL21 (DE3)
T2 sequence (P14174 with tags, fused parts or gaps): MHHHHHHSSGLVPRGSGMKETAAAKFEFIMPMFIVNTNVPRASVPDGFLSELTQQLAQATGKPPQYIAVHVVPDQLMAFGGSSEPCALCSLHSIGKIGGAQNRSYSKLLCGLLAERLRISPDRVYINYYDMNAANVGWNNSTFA
Description: (§2) After Compound A was immobilized onto a sensor chip CM5 (manufactured by Biacore Co., Ltd.), HBS-EP buffer (manufactured by Biacore Co., Ltd.) containing 10 μg/ml of hMIF or hMIF-P1S was passed over the chip to assess changes in surface plasmon resonance signal as the binding of the compound to human MIF.
Similarly, the binding of Compound A to His-hMIF added with the peptide to its N terminus, obtained in REFERENCE EXAMPLE 3, was analyzed.

hMIF-P1S = biological target: T3, hMIF-P1S (Homo sapiens, UniProt P14174); experiment: Binding of modified human MIF (hMIF-P1S) to immobilized Compound A by BIACORE 3000; details: 10 μg/ml hMIF or hMIF-P1S in HBS-EP buffer, FIG. 2
T3 construct: the region encoding MIF was amplified from human complementary DNA (cDNA) library; made in house; host or cells: Escherichia coli BL21 (DE3)
T3 sequence (P14174 with tags, fused parts or gaps): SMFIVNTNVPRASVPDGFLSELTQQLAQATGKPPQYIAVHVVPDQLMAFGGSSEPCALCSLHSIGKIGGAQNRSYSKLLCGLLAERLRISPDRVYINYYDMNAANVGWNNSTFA
Description: The binding of human MIF (hMIF) and modified human MIF (hMIF-P1S) obtained in REFERENCE EXAMPLE 1 to Compound A was analyzed by BIACORE 3000 (manufactured by Biacore Co., Ltd.).
as §2

binding of the compound to rat MIF (changes in surface plasmon resonance signal) (rat MIF) | binding ability of Compound A to human MIF with 30 amino acid-polypeptide containing histidine tag added to the N terminus (His-hMIF), compared with hMIF (His-hMIF) | binding ability of Compound A to human MIF with N-terminal proline replaced by serine (hMIF-P1S), compared with hMIF (hMIF-P1S) | Structure (SMILES)
strongly binds | greatly attenuated | greatly attenuated | NCCCCCCNC(=O)c1cccc(-c2nc(=O)c3ccccc3s2)n1 [Compound A, N-(6-aminohexyl)-6-(4-oxo-4H-1,3-benzothiazin-2-yl)-2-pyridinecarboxamide]
weaker than that of Compound A | – | – | Cc1cccc2c(=O)nc(-c3cccc(C(=O)NCCCCCCN)n3)sc12 [Compound C, N-(6-aminohexyl)-6-(8-methyl-4-oxo-4H-1,3-benzothiazin-2-yl)pyridine-2 carboxamide]
